ChEMBL document CHEMBL1201862, “PubChem BioAssay data set” (2004)
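Grown in 96-well plates, cells were treated for 48 hours with each compound at five concentrations. Insufficient inhibition: endpoint recorded as highest concentration tested. The concentration for 50% growth inhibition is given as GI50.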 Calls of active or inactive are those of the source. Cut-off read from the data, not from the text of the source: active = GI50 up to about 1.1 µM and inactive = higher.

Tests used:
Assay in all cases: NCI anticancer screen, dose series, 48 h
[1] = system: NCI-H226
[2] = system: ACHN
[3] = system: NCI-H522
[4] = system: UO-31
[5] = system: OVCAR-5
[6] = system: SK-MEL-5
[7] = system: HCT-116
[8] = system: HL-60
[9] = system: HCC 2998
[10] = system: CAKI-1
[11] = system: MOLT-4
[12] = system: M14
[13] = system: HT-29
[14] = system: SF-539
[15] = system: PC-3
[16] = system: OVCAR-4
[17] = system: RPMI-8226
[18] = system: NCI-H460
[19] = system: CCRF-CEM
[20] = system: LOX IMVI
[21] = system: MDA-MB-435
[22] = system: UACC-62
[23] = system: Hs-578T
[24] = system: A498
[25] = system: TK-10
[26] = system: KM12
[27] = system: MDA-N
[28] = system: U-251
[29] = system: Malme-3M
[30] = system: HOP-62
[31] = system: OVCAR-8
[32] = system: K562
[33] = system: SW-620
[34] = system: SNB-75
[35] = system: SN12C
[36] = system: SF-295
[37] = system: NCI-H23
[38] = system: SR
[39] = system: IGROV-1
[40] = system: HCT-15
[41] = system: COLO 205
[42] = system: NCI/ADR-RES
[43] = system: RXF 393
[44] = system: 786-0
[45] = system: MDA-MB-231
[46] = system: A549
[47] = system: MCF7
[48] = system: EKVX
[49] = system: SNB-19
[50] = system: OVCAR-3
[51] = system: T47D
[52] = system: UACC-257
[53] = system: SK-MEL-2
[54] = system: SK-MEL-28
[55] = system: SF-268
[56] = system: SK-OV-3
[57] = system: HOP-92
[58] = system: DU-145

SMILES: C1CCCN(NC2=NCCO2)CC1
- GI50 [1]: > 100 µM (inactive)
- GI50 [2]: > 100 µM (inactive)
- GI50 [3]: > 100 µM (inactive)
- GI50 [4]: > 100 µM (inactive)
- GI50 [5]: > 100 µM (inactive)
- GI50 [6]: > 100 µM (inactive)
- GI50 [7]: > 100 µM (inactive)
- GI50 [8]: > 100 µM (inactive)
- GI50 [9]: > 100 µM (inactive)
- GI50 [10]: > 100 µM (inactive)
- GI50 [11]: > 100 µM (inactive)
- GI50 [12]: > 100 µM (inactive)
- GI50 [13]: > 100 µM (inactive)
- GI50 [14]: > 100 µM (inactive)
- GI50 [15]: > 100 µM (inactive)
- GI50 [16]: > 100 µM (inactive)
- GI50 [17]: > 100 µM (inactive)
- GI50 [18]: > 100 µM (inactive)
- GI50 [19]: > 100 µM (inactive)
- GI50 [20]: > 100 µM (inactive)
- GI50 [21]: > 100 µM (inactive)
- GI50 [22]: > 100 µM (inactive)
- GI50 [23]: > 100 µM (inactive)
- GI50 [24]: > 100 µM (inactive)
- GI50 [25]: > 100 µM (inactive)
- GI50 [26]: > 100 µM (inactive)
- GI50 [27]: > 100 µM (inactive)
- GI50 [28]: > 100 µM (inactive)
- GI50 [29]: > 100 µM (inactive)
- GI50 [30]: > 100 µM (inactive)
- GI50 [31]: > 100 µM (inactive)
- GI50 [32]: > 100 µM (inactive)
- GI50 [33]: > 100 µM (inactive)
- GI50 [34]: > 100 µM (inactive)
- GI50 [35]: > 100 µM (inactive)
- GI50 [36]: > 100 µM (inactive)
- GI50 [37]: > 100 µM (inactive)
- GI50 [38]: > 100 µM (inactive)
- GI50 [39]: > 100 µM (inactive)
- GI50 [40]: > 100 µM
- GI50 [41]: > 100 µM (inactive)
- GI50 [42]: > 100 µM (inactive)
- GI50 [43]: > 100 µM (inactive)
- GI50 [44]: > 100 µM (inactive)
- GI50 [45]: > 100 µM (inactive)
- GI50 [46]: > 100 µM (inactive)
- GI50 [47]: > 100 µM (inactive)
- GI50 [48]: > 100 µM (inactive)
- GI50 [49]: > 100 µM (inactive)
- GI50 [50]: > 100 µM (inactive)
- GI50 [51]: > 100 µM (inactive)
- GI50 [52]: > 100 µM (inactive)
- GI50 [53]: > 100 µM (inactive)

SMILES: CCc1cc2c(cc1O)CC[C@@H]1[C@@H]2CC[C@]2(C)[C@@H](O)CC[C@@H]12
- GI50 [1]: 12.2 µM (inactive)
- GI50 [2]: 8.81 µM (inactive)
- GI50 [3]: 8.81 µM (inactive)
- GI50 [4]: 9.08 µM (inactive)
- GI50 [5]: 20.3 µM (inactive)
- GI50 [6]: 7.11 µM (inactive)
- GI50 [8]: 3.02 µM (inactive)
- GI50 [54]: 5.14 µM (inactive)
- GI50 [9]: 10.2 µM (inactive)
- GI50 [10]: 4.67 µM (inactive)
- GI50 [11]: 5 µM (inactive)
- GI50 [12]: 6.49 µM (inactive)
- GI50 [13]: 15 µM (inactive)
- GI50 [15]: 12.2 µM (inactive)
- GI50 [16]: 12.3 µM (inactive)
- GI50 [18]: 5.42 µM (inactive)
- GI50 [19]: 5.6 µM (inactive)
- GI50 [20]: 9.75 µM (inactive)
- GI50 [21]: 1.73 µM (inactive)
- GI50 [22]: > 10 µM (inactive)
- GI50 [24]: 18.7 µM (inactive)
- GI50 [55]: 6.41 µM (inactive)
- GI50 [25]: 21.9 µM (inactive)
- GI50 [26]: 6.19 µM (inactive)
- GI50 [27]: 2.07 µM (inactive)
- GI50 [28]: 4.76 µM (inactive)
- GI50 [29]: 2.97 µM (inactive)
- GI50 [30]: 6.14 µM (inactive)
- GI50 [31]: 7.24 µM (inactive)
- GI50 [32]: 3.88 µM (inactive)
- GI50 [33]: 4.16 µM (inactive)
- GI50 [34]: 1.9 µM (inactive)
- GI50 [36]: 3.91 µM (inactive)
- GI50 [37]: 7.14 µM (inactive)
- GI50 [38]: 3.08 µM (inactive)
- GI50 [39]: 11.2 µM (inactive)
- GI50 [40]: 4.83 µM
- GI50 [41]: 17.5 µM (inactive)
- GI50 [42]: 3.66 µM (inactive)
- GI50 [43]: 3.76 µM (inactive)
- GI50 [44]: 5.21 µM (inactive)
- GI50 [45]: 7.93 µM (inactive)
- GI50 [46]: 8.05 µM (inactive)
- GI50 [47]: 3.63 µM (inactive)
- GI50 [48]: 9.71 µM (inactive)
- GI50 [49]: 6.34 µM (inactive)
- GI50 [51]: 7.48 µM (inactive)
- GI50 [52]: 8.02 µM (inactive)
- GI50 [53]: 9.82 µM (inactive)
- GI50 [56]: 11.7 µM (inactive)

SMILES: COc1ccc(/C(Cl)=C(\CNc2ccccn2)c2ccccc2)cc1OC
- GI50 [1]: > 100 µM (inactive)
- GI50 [2]: > 100 µM (inactive)
- GI50 [3]: 99.8 µM (inactive)
- GI50 [4]: > 100 µM (inactive)
- GI50 [5]: > 100 µM (inactive)
- GI50 [6]: > 100 µM (inactive)
- GI50 [7]: > 100 µM (inactive)
- GI50 [8]: > 100 µM (inactive)
- GI50 [54]: > 100 µM (inactive)
- GI50 [9]: > 100 µM (inactive)
- GI50 [10]: > 100 µM (inactive)
- GI50 [11]: > 100 µM (inactive)
- GI50 [13]: > 100 µM (inactive)
- GI50 [14]: > 100 µM (inactive)
- GI50 [15]: > 100 µM (inactive)
- GI50 [16]: > 100 µM (inactive)
- GI50 [17]: > 100 µM (inactive)
- GI50 [18]: > 100 µM (inactive)
- GI50 [19]: > 100 µM (inactive)
- GI50 [20]: > 100 µM (inactive)
- GI50 [21]: > 100 µM (inactive)
- GI50 [22]: > 100 µM (inactive)
- GI50 [57]: > 100 µM (inactive)
- GI50 [23]: > 100 µM (inactive)
- GI50 [24]: > 100 µM (inactive)
- GI50 [55]: > 100 µM (inactive)
- GI50 [25]: > 100 µM (inactive)
- GI50 [58]: > 100 µM (inactive)
- GI50 [26]: > 100 µM (inactive)
- GI50 [27]: > 100 µM (inactive)
- GI50 [28]: > 100 µM (inactive)
- GI50 [29]: > 100 µM (inactive)
- GI50 [30]: > 100 µM (inactive)
- GI50 [31]: > 100 µM (inactive)
- GI50 [32]: > 100 µM (inactive)
- GI50 [33]: > 100 µM (inactive)
- GI50 [34]: > 100 µM (inactive)
- GI50 [35]: > 100 µM (inactive)
- GI50 [36]: > 100 µM (inactive)
- GI50 [37]: > 100 µM (inactive)
- GI50 [38]: > 100 µM (inactive)
- GI50 [39]: > 100 µM (inactive)
- GI50 [40]: > 100 µM
- GI50 [41]: > 100 µM (inactive)
- GI50 [42]: > 100 µM (inactive)
- GI50 [43]: > 100 µM (inactive)
- GI50 [44]: > 100 µM (inactive)
- GI50 [45]: > 100 µM (inactive)
- GI50 [46]: > 100 µM (inactive)
- GI50 [48]: > 100 µM (inactive)
- GI50 [49]: > 100 µM (inactive)
- GI50 [51]: > 100 µM (inactive)
- GI50 [52]: > 100 µM (inactive)
- GI50 [53]: > 100 µM (inactive)
- GI50 [56]: > 100 µM (inactive)
